# Laboratory results published in patent publication US20250042862A1, “AROMATIC HETEROCYCLIC COMPOUND AND APPLICATION THEREOF” (Shanghai Institute of Materia Medica, Chinese Academy of …, priority 2021, published 2025).
# Biological target: human recombinant LSD1 protein (Homo sapiens (Human), UniProt O60341)
# Experiment: In vitro enzyme inhibition activity assay - LSD1 (Lance Ultra TR-FRET)
# Assay type: biochemical
# Settings: all compounds tested in the form of hydrochloride
# Procedure: The purpose of this experiment was to test the in vitro inhibitory activity of the compounds against LSD1. The human recombinant LSD1 protein used in the experiment was purchased from Active Motif, and the enzyme level activity testing assay of LSD1 was performed using the Lance Ultra LSD1 Histone H3 Lysine 4 Demethylase Assay Kit (PerkinElmer). Tris-buffer (50 mMTris-HCl, 50 mMNaCl, 0.01% Tween-20, 1 mM DTT, 10 μM FAD, 10% glycerol, pH 9.0) was first prepared, and after preparation, the LSD1 fractions required for test were placed in this buffer and incubated for one hour at room temperature; the fractions included 4 μL of substrate solution ([…] Bio-H3K4me2, 1-24aa), 4 μL of enzyme solution (4 nM LSD1), and 2 μL of inhibitor in a 384-well microplate. After these operations, another 5 μL of assay mixture containing Eu-labeled H3K4me0 antibody and ULight-Streptavidin anti-biotin protein was added to the system, after which the fluorescence intensity of the components to be tested was detected by using Envision (PerkinElmer) in TR-FRET mode (excitation wavelength of 320 nm, emission wavelength of 620 nm). The test was repeated a total of three times to minimize errors. The final IC50 data were calculated by the software GraphPad Prism 5, and finally the sigmoidal dose-response (variable slope) method was used to obtain the fitted curve.
# The LSD1 inhibitory activities of representative compounds of the present application as well as the positive control compound CC90011 were provided in Table 2. All compounds were tested in the form of hydrochloride.
row,IC50 [nM],Compound
1,≤ 30,"N#Cc1ccc(-c2nc(NC[C@H]3CCNC3)nc3ccc(-c4c(F)cccc4C(F)(F)F)cc23)cc1F [Compound 54, (S)-4-(6-(2-fluoro-6-(trifluoromethylphenyl)-2-(pyrrolidin-3-ylmethyl)amino)quinazolin-4-yl)-2-fluorobenzonitrile]"
2,≤ 30,"N#Cc1ccc(-c2nc(N3CCCC[C@H](N)C3)nc3ccc(-c4c(F)cccc4C(F)(F)F)cc23)cc1F [Compound 86, (S)-4-(2-(3-aminoazepan-1-yl)-6-(2-fluoro-6-(trifluoromethyl)phenyl)quinazolin-4-yl)-2-fluorobenzonitrile]"
3,30 to 300,"N#Cc1ccc(-c2nc(NC[C@H]3CCNC3)nc3ccc(-c4cc(F)ccc4C(F)(F)F)cc23)cc1F [Compound 56, (S)-4-(6-(5-fluoro-2-(trifluoromethyl)-2-(pyrrolidin-3-ylmethyl)amino)quinazolin-4-yl)-2-fluorobenzonitrile]"
4,≤ 30,"Cn1ncc2cccc(-c3ccc4nc(N5CCC(N)CC5)nc(-c5ccc(C#N)c(F)c5)c4c3)c21 [Compound 11, 4-(2-(4-aminopiperidin-1-yl)-6-(1-methyl-1H-indazol-7-yl)quinazolin-4-yl)-2-fluorobenzonitrile]"
5,≤ 30,"N#Cc1ccc(-c2nc(N3CCC[C@H](N)CC3)nc3ccc(-c4c(F)cccc4C(F)(F)F)cc23)cc1F [Compound 88, (S)-4-(2-(4-aminoazepan-1-yl)-6-(2-fluoro-6-(trifluoromethyl)phenyl)quinazolin-4-yl)-2-fluorobenzonitrile]"
6,30 to 300,"N#Cc1ccc(-c2nc(N3CCC(N)CC3)nc3ccc(-c4ccccc4OC(F)(F)F)cc23)cc1F [Compound 13, 4-(2-(4-aminopiperidin-1-yl)-6-(2-(trifluoromethoxy)phenyl)quinazolin-4-yl)-2-fluorobenzonitrile]"
7,≤ 30,"N#Cc1ccc(-c2nc(N3CCC(N)CC3)nc3ccc(-c4ccccc4Cl)cc23)cc1F [Compound 16, 4-(2-(4-aminopiperidin-1-yl)-6-(2-chlorophenyl)quinazolin-4-yl)-2-fluorobenzonitrile]"
8,30 to 300,"Cc1c(F)cccc1-c1ccc2nc(NC[C@H]3CCNC3)nc(-c3ccc(C#N)c(F)c3)c2c1 [Compound 47, (S)-2-fluoro-4-(6-(3-fluoro-2-methylphenyl)-2-((pyrrolidin-3-ylmethyl)amino)quinazolin-4-yl)benzonitrile]"
9,≤ 30,Cc1cccc(Cl)c1-c1ccc2nc(NC[C@H]3CCNC3)nc(-c3ccc(C#N)c(F)c3)c2c1 [Compound 53]
10,30 to 300,N#Cc1ccc(-c2nc(NC[C@H]3CCNC3)nc3ccc(-c4c(Cl)cccc4C(F)(F)F)cc23)cc1F [Compound 52]
11,30 to 300,"N#Cc1ccc(-c2nc(N3CC4C(N)C4C3)nc3ccc(-c4c(F)cccc4C(F)(F)F)cc23)cc1F (stereo not shown) [Compound 65, 4-(2-(6-Amino-3-azabicyclo[3.1.0]hexan-3-yl)-6-(2-fluoro-6-(trifluoromethyl)phenyl)quinazolin-4-yl)-2-fluorobenzonitrile]"
12,≤ 30,"Cc1ccccc1-c1ccc2nc(NCC3CCNC3)nc(-c3ccc(C#N)c(F)c3)c2c1 (stereo not shown) [Compound 34, 2-Fluoro-4-(2-((pyrrolidin-3-ylmethyl)amino)-6-(o-methylphenyl)quinazolin-4-yl)benzonitrile]"
13,30 to 300,"N#Cc1ccc(-c2nc(N3CCC(N)CC3)nc3c2CN(c2ccccc2C(F)(F)F)CC3)cc1F [Compound 92, 4-(2-(4-aminopiperidin-1-yl)-6-(2-(trifluoromethyl)phenyl)-5,6,7,8-tetrahydropyrido[4,3-d]pyrimidin-4-yl)-2-fluorobenzonitrile]"
14,30 to 300,"Cc1ccccc1-c1ccc2nc(NC[C@H]3CCNC3)nc(-c3ccc(C#N)c(F)c3)c2c1 [Compound 37, (S)-2-fluoro-4-(2-((pyrrolidin-3-ylmethyl)amino)-6-(o-methylphenyl)quinazolin-4-yl)benzonitrile]"
15,≤ 30,"CN(C)C1CCN(c2nc(-c3ccc(C#N)c(F)c3)c3cc(-c4c(F)cccc4C(F)(F)F)ccc3n2)CC1 [Compound 73, 4-(2-(4-(Dimethylamino)piperidin-1-yl)-6-(2-fluoro-6-(trifluoromethyl)phenyl)quinazolin-4-yl)-2-fluorobenzonitrile]"
16,≤ 30,"N#Cc1ccc(-c2nc(N3CC[C@@H](N)C3)nc3ccc(-c4c(F)cccc4C(F)(F)F)cc23)cc1F [Compound 91, (R)-4-(2-(3-aminopyrrolidin-1-yl)-6-(2-fluoro-6-(trifluoromethyl)phenyl)quinazolin-4-yl)-2-fluorobenzonitrile]"

row,IC50 [nM],Compound
1,≤ 30,"N#Cc1ccc(-c2nc(N3CCC(N)CC3)nc3ccc(-c4ccccc4C(F)(F)F)cc23)cc1F [Compound 14, 4-(2-(4-aminopiperidin-1-yl)-6-(2-(trifluoromethyl)phenyl)quinazolin-4-yl)-2-fluorobenzonitrile]"
2,≤ 30,"N#Cc1ccc(-c2nc(N3CCC(N)CC3)nc3cc(F)c(-c4ccccc4F)cc23)cc1F [Compound 78, 4-(2-(4-aminopiperidin-1-yl)-7-fluoro-6-(2-fluorophenyl)quinazolin-4-yl)-2-fluorobenzonitrile]"
3,≤ 30,"N#Cc1ccc(-c2nc(NC[C@H]3CCNC3)nc3ccc(-c4c(Cl)cccc4Cl)cc23)cc1F [Compound 51, (S)-4-(6-(2,6-dichlorophenyl)-2-((pyrrolidin-3-ylmethyl)amino)quinazolin-4-yl)-2-fluorobenzonitrile]"
4,≤ 30,"N#Cc1ccc(-c2nc(N3CCC(N)CC3)cc3ccc(-c4c(F)cccc4C(F)(F)F)cc23)cc1F [Compound 98, 4-(3-(4-Aminopiperidin-1-yl)-7-(2-fluoro-6-(trifluoromethyl)phenyl)isoquinolin-1-yl)-2-fluorobenzonitrile]"
5,30 to 300,"Cc1cscc1-c1ccc2nc(NC[C@H]3CCNC3)nc(-c3ccc(C#N)c(F)c3)c2c1 [Compound 44, (S)-2-fluoro-4-(6-(4-methylthiophen-3-yl)-2-((pyrrolidin-3-ylmethyl)amino)quinazolin-4-yl)benzonitrile]"
6,30 to 300,"Cc1nn(C)c(C)c1-c1ccc2nc(NC[C@H]3CCNC3)nc(-c3ccc(C#N)c(F)c3)c2c1 [Compound 49, (S)-2-fluoro-4-(2-((pyrrolidin-3-ylmethyl)amino)-6-(1,3,5-trimethyl-1H-pyrazol-4-yl)quinazolin-4-yl)benzonitrile]"
7,30 to 300,"Cc1ccccc1-c1ccc2nc(NC[C@@H]3CCNC3)nc(-c3ccc(C#N)c(F)c3)c2c1 [Compound 38, (R)-2-fluoro-4-(2-((pyrrolidin-3-ylmethyl)amino)-6-(o-methylphenyl)quinazolin-4-yl)benzonitrile]"
8,≤ 30,"Cn1c(=O)c(-c2ccccc2C(F)(F)F)cc2c(-c3ccc(C#N)c(F)c3)nc(N3CCC(N)CC3)nc21 [Compound 99, 4-(2-(4-aminopiperidin-1-yl)-8-methyl-7-oxo-6-(2-trifluoromethylphenyl)-7,8-dihydropyrido[2,3-d]pyrimidin-4-yl)-2-fluorobenzonitrile]"
9,30 to 300,"Cc1noc(C)c1-c1ccc2nc(N3CCC(N)CC3)nc(-c3ccc(C#N)c(F)c3)c2c1 [Compound 3, 4-(2-(4-aminopiperidin-1-yl)-6-(3,5-dimethylisoxazol-4-yl)quinazolin-4-yl)-2-fluorobenzonitrile]"
10,30 to 300,"N#Cc1ccc(-c2nc(N3CCC[C@H](N)C3)nc3ccc(-c4c(F)cccc4C(F)(F)F)cc23)cc1F [Compound 75, (S)-4-(2-(3-aminopiperidin-1-yl)-6-(2-fluoro-6-(trifluoromethyl)phenyl)quinazolin-4-yl)-2-fluorobenzonitrile]"
11,30 to 300,"COc1ccc(-c2ccc3nc(NC[C@@H]4CCNC4)nc(-c4ccc(C#N)c(F)c4)c3c2)cc1F [Compound 36, (R)-2-fluoro-4-(6-(3-fluoro-4-methoxyphenyl)-2-((pyrrolidin-3-ylmethyl)amino)quinazolin-4-yl)benzonitrile]"
12,≤ 30,"Cc1cc(C)c(-c2ccc3nc(NC[C@H]4CCNC4)nc(-c4ccc(C#N)c(F)c4)c3c2)c(C)c1 [Compound 46, (S)-4-(6-(2,4,6-trimethylphenyl)-2-((pyrrolidin-3-ylmethyl)amino)quinazolin-4-yl)-2-fluorobenzonitrile]"
13,30 to 300,"COc1ccc(-c2ccc3nc(NC[C@H]4CCNC4)nc(-c4ccc(C#N)c(F)c4)c3c2)cc1F [Compound 35, (S)-2-fluoro-4-(6-(3-fluoro-4-methoxyphenyl)-2-((pyrrolidin-3-ylmethyl)amino)quinazolin-4-yl)benzonitrile]"
14,≤ 30,"N#Cc1ccc(-c2nc(N3CCC(N)CC3)nc3ccc(-c4cccc(F)c4C(F)(F)F)cc23)cc1F [Compound 23, 4-(2-(4-Aminopiperidin-1-yl)-6-(3-fluoro-2-(trifluoromethyl)phenyl)quinazolin-4-yl)-2-fluorobenzonitrile]"
15,≤ 30,"N#Cc1ccc(-c2nc(N3CC[C@H](N)C3)nc3ccc(-c4c(F)cccc4C(F)(F)F)cc23)cc1F [Compound 90, (S)-4-(2-(3-aminopyrrolidin-1-yl)-6-(2-fluoro-6-(trifluoromethyl)phenyl)quinazolin-4-yl)-2-fluorobenzonitrile]"
